Data set [1] deals with T1, human calcitonin receptor (hCTR2) (Homo sapiens, UniProt P30988).
T1 construct: expressed in transfected cells
T1 sequence (P30988 25-474): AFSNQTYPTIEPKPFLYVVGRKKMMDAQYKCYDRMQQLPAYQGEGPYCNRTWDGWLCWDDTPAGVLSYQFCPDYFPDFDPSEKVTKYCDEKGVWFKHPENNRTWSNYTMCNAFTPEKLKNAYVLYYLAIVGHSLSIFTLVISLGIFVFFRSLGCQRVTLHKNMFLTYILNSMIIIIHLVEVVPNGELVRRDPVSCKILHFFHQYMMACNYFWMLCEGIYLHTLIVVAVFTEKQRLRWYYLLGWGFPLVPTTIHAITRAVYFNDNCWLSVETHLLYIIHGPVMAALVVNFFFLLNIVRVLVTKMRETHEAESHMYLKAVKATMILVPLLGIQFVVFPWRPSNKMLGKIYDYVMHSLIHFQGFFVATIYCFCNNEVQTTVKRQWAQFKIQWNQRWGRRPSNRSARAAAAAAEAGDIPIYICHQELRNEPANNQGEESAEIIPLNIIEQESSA
Put plainly: hCTR2 assay: induction of cAMP (AlphaScreen cAMP Assay kit) in COS7 cells expressing hCTR2. The class given is cell-based. Summed up: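 cAMP induction was measured by AlphaScreen in COS7 cells stably expressing hCTR2 without RAMPs, after 15 min at 37° C with increasing peptide concentrations, 100 µM IBMX and 0.1% casein (Tyrode, pH 7.4). A 4-parameter logistic fit gave EC50 and % efficacy versus pramlintide.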
For orientation: Bead proximity is the source of the signal in Alpha formats.

The nature of data set [2]: Solubility assessment (turbidity absorbance at 325 nm). The data set is classed as physicochemical. The following applies: stock 2 mg/ml diluted 1:1, ambient temperature (typically 25°C), n=1; for Solubility, Acetate buffer pH 4: 100 mM acetate buffer pH 4.0; for Solubility, Acetate buffer pH 5: 100 mM acetate buffer pH 5.0; for Solubility, Histidine buffer pH 6: 100 mM histidine buffer pH 6.0; for Solubility, Histidine buffer pH 7: 100 mM histidine buffer pH 7.0; for Solubility, Phosphate buffer pH 6: 100 mM phosphate buffer pH 6.0; for Solubility, Phosphate buffer pH 7: 100 mM phosphate buffer pH 7.0; for Solubility, Phosphate buffer pH 7.5: 100 mM phosphate buffer pH7.5. Summed up:
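Turbidity read as absorbance at 325 nm (also 280 nm), single samples at ambient temperature (typically 25°C); ≤ 0.02 units counts as ≥ 1 mg/ml soluble. Samples made by 1:1 dilution of a 2 mg/ml acidic stock into 100 mM acetate, histidine or phosphate buffers, pH 4.0–7.5.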

Where [3] appears, read: cAMP induction in COS7 cells expressing hCTR2, average of a minimum of 3 determinations, read-out: hCTR2 EC50.

Each structure is given as a SMILES string. Where two headings read alike, the source gives them in different places. Numbered stars: 1 amine (or outer) side, 2 acyl side, 3 side chain; on linkers, the order of the positions; unused ones are H or OH. Bridge positions count the residues as written; N and C are the ends. Square brackets hold non-standard residues; d marks the D form. Peptide text beside a SMILES is read from it. * marks the point of attachment. C20 diacid = O=C(O)CCCCCCCCCCCCCCCCCCC(=O)*; γGlu = O=C(O)[C@H](CCC(=O)[*:2])N[*:1]; NMeI = CC[C@H](C)[C@H](NC)C(=O)O; Sar = CNCC(=O)O

By EC50 is commonly meant the concentration that produces a half-maximal response. With `CC[C@H](C)[C@@H](C(=O)N[C@@H](CC(C)C)C(=O)N[C@@H](CO)C(=O)N[C@@H](CO)C(=O)N[C@H](C(=O)N[C@@H](CC(N)=O)C(=O)N[C@H](C(=O)NCC(=O)N[C@@H](CO)C(=O)N[C@@H](CC(N)=O)C(=O)N[C@H](C(=O)N1CCC[C@H]1C(N)=O)[C@@H](C)O)C(C)C)[C@@H](C)O)N(C)C(=O)[C@H](C)NC(=O)CN(C)C(=O)[C@H](Cc1ccccc1)NC(=O)[C@H](CC(N)=O)NC(=O)[C@H](CC(N)=O)NC(=O)[C@H](CO)NC(=O)[C@H](CO)NC(=O)[C@H](CCCNC(=N)N)NC(=O)[C@H](Cc1c[nH]cn1)NC(=O)[C@H](CC(C)C)NC(=O)[C@H](Cc1ccccc1)NC(=O)[C@H](CCC(=O)O)NC(=O)[C@H](C)NC(=O)[C@H](CC(C)C)NC(=O)[C@H](CCCNC(=N)N)NC(=O)[C@H](CCC(N)=O)NC(=O)[C@@H](NC(=O)[C@H](C)NC(=O)[C@@H]1CSSC[C@H](NC(=O)[C@H](CCCNC(=N)N)NC(=O)CC[C@H](NC(=O)CCCCCCCCCCCCCCCCCCC(=O)O)C(=O)O)C(=O)N[C@@H](CC(N)=O)C(=O)N[C@@H]([C@@H](C)O)C(=O)N[C@@H](C)C(=O)N[C@@H]([C@@H](C)O)C(=O)N1)[C@@H](C)O` [Compound 18, [19CD]-isoGlu-RC()NTATC()ATQRLAEFLHRSSNNF-Gly(Me)-A-Ile(Me)-LSSTNVGSNTP-NH2] ({C20 diacid-γGlu}-RCNTATCATQRLAEFLHRSSNNF[Sar]A[NMeI]LSSTNVGSNTP-NH2; disulfide 2-7), in data set [1], the EC50 amounted to 0.06 nM. For the same compound, in data set [2], the “Solubility, Acetate buffer pH 4” value was “SS (SS indicates solubility ≥ 1mg/ml)”; the “Solubility, Acetate buffer pH 5” value is listed as “SS (SS indicates solubility ≥ 1mg/ml)”; the “Solubility, Histidine buffer pH 6” value is listed as “SS (SS indicates solubility ≥ 1mg/ml)”; the “Solubility, Histidine buffer pH 7” value was “SS (SS indicates solubility ≥ 1mg/ml)”. For the same compound, in data set [2], the “Solubility, Phosphate buffer pH 6” value was “SS (SS indicates solubility ≥ 1mg/ml)”; the “Solubility, Phosphate buffer pH 7” value is “SS (SS indicates solubility ≥ 1mg/ml)”; the “Solubility, Phosphate buffer pH 7.5” value is on record as “SS (SS indicates solubility ≥ 1mg/ml)”.

With `CC[C@H](C)[C@@H](C(=O)N[C@@H](CC(C)C)C(=O)N[C@H](CO)C(=O)N[C@@H](CO)C(=O)N[C@H](C(=O)N[C@@H](CC(N)=O)C(=O)N[C@H](C(=O)NCC(=O)N[C@@H](CO)C(=O)N[C@@H](CC(N)=O)C(=O)N[C@H](C(=O)N1CCC[C@H]1C(N)=O)[C@@H](C)O)C(C)C)[C@@H](C)O)N(C)C(=O)[C@H](C)NC(=O)CN(C)C(=O)[C@@H](Cc1ccccc1)NC(=O)[C@H](CC(N)=O)NC(=O)[C@H](CC(N)=O)NC(=O)[C@H](CO)NC(=O)[C@H](CO)NC(=O)[C@H](CCCNC(=N)N)NC(=O)[C@H](Cc1c[nH]cn1)NC(=O)[C@H](CC(C)C)NC(=O)[C@H](Cc1ccccc1)NC(=O)[C@H](CCC(=O)O)NC(=O)[C@H](C)NC(=O)[C@H](CC(C)C)NC(=O)[C@H](CCCNC(=N)N)NC(=O)[C@H](CCC(N)=O)NC(=O)[C@@H](NC(=O)[C@H](C)NC(=O)[C@@H]1CSSC[C@H](NC(=O)[C@H](CCCCN)NC(=O)CC[C@H](NC(=O)CCCCCCCCCCCCCCCCCCC(=O)O)C(=O)O)C(=O)N[C@@H](CC(N)=O)C(=O)N[C@@H]([C@@H](C)O)C(=O)N[C@@H](C)C(=O)N[C@@H]([C@@H](C)O)C(=O)N1)[C@@H](C)O` [Compound 72, [19CD]-isoGlu-KC()NTATC()ATQRLAEFLHRSSNN-DPhe-Gly(Me)-A-Ile(Me)-L-DSer-STNVGSNTP] ({C20 diacid-γGlu}-KCNTATCATQRLAEFLHRSSNN[dF][Sar]A[NMeI]L[dS]STNVGSNTP-NH2; disulfide 2-7), the EC50 in data set [1] was determined as 0.071 nM. In data set [2], the “Solubility, Acetate buffer pH 4” value was “SS (SS indicates solubility ≥ 1mg/ml)”; the “Solubility, Acetate buffer pH 5” value is “SS (SS indicates solubility ≥ 1mg/ml)”; the “Solubility, Histidine buffer pH 6” value was “SS (SS indicates solubility ≥ 1mg/ml)”; the “Solubility, Histidine buffer pH 7” value was “SS (SS indicates solubility ≥ 1mg/ml)”. Besides, in data set [2], the “Solubility, Phosphate buffer pH 6” value is listed as “SS (SS indicates solubility ≥ 1mg/ml)”; the “Solubility, Phosphate buffer pH 7” value is reported as “SS (SS indicates solubility ≥ 1mg/ml)”; the “Solubility, Phosphate buffer pH 7.5” value was “SS (SS indicates solubility ≥ 1mg/ml)”.

On to `CC[C@H](C)[C@@H](C(=O)N[C@@H](CC(C)C)C(=O)N[C@@H](CO)C(=O)N[C@@H](CO)C(=O)N[C@H](C(=O)N[C@@H](CC(=O)O)C(=O)N[C@H](C(=O)NCC(=O)N[C@@H](CO)C(=O)N[C@@H](CC(=O)O)C(=O)N[C@H](C(=O)N1CCC[C@H]1C(N)=O)[C@@H](C)O)C(C)C)[C@@H](C)O)N(C)C(=O)[C@H](C)NC(=O)CN(C)C(=O)[C@H](Cc1ccccc1)NC(=O)[C@H](CO)NC(=O)[C@H](CO)NC(=O)[C@H](CO)NC(=O)[C@H](CO)NC(=O)[C@H](CCCNC(=N)N)NC(=O)[C@H](Cc1c[nH]cn1)NC(=O)[C@H](CC(C)C)NC(=O)[C@H](Cc1ccccc1)NC(=O)[C@H](CCC(=O)O)NC(=O)[C@H](C)NC(=O)[C@H](CC(C)C)NC(=O)[C@H](CCCNC(=N)N)NC(=O)[C@H](CCC(N)=O)NC(=O)[C@@H](NC(=O)[C@H](C)NC(=O)[C@@H]1CSSC[C@H](NC(=O)[C@H](CCCNC(=N)N)NC(=O)CC[C@H](NC(=O)CCCCCCCCCCCCCCCCCCC(=O)O)C(=O)O)C(=O)N[C@@H](CC(N)=O)C(=O)N[C@@H]([C@@H](C)O)C(=O)N[C@@H](C)C(=O)N[C@@H]([C@@H](C)O)C(=O)N1)[C@@H](C)O` [Compound 73, [19CD]-isoGlu-RC()NTATC()ATQRLAEFLHRSSSSF-Gly(Me)-A-Ile(Me)-LSSTDVGSDTP-NH2] ({C20 diacid-γGlu}-RCNTATCATQRLAEFLHRSSSSF[Sar]A[NMeI]LSSTDVGSDTP-NH2; disulfide 2-7), for which the EC50 in data set [1] (setting [3]) was found to be 0.072 nM. Moreover, in data set [2], the “Solubility, Acetate buffer pH 4” value is recorded as “SS (SS indicates solubility ≥ 1mg/ml)”; the “Solubility, Acetate buffer pH 5” value is on record as “II (II indicates solubility ≤ 1 mg/ml)”; the “Solubility, Histidine buffer pH 6” value is reported as “SS (SS indicates solubility ≥ 1mg/ml)”; the “Solubility, Histidine buffer pH 7” value is “SS (SS indicates solubility ≥ 1mg/ml)”. In addition, in data set [2], the “Solubility, Phosphate buffer pH 6” value is “SS (SS indicates solubility ≥ 1mg/ml)”; the “Solubility, Phosphate buffer pH 7” value is recorded as “SS (SS indicates solubility ≥ 1mg/ml)”; the “Solubility, Phosphate buffer pH 7.5” value is recorded as “SS (SS indicates solubility ≥ 1mg/ml)”.

For the compound `CC[C@H](C)[C@@H](C(=O)N[C@@H](CC(C)C)C(=O)N[C@@H](CO)C(=O)N[C@@H](CO)C(=O)N[C@H](C(=O)N[C@@H](CCC(=O)O)C(=O)N[C@H](C(=O)NCC(=O)N[C@@H](CO)C(=O)N[C@@H](CCC(=O)O)C(=O)N[C@H](C(=O)N1CCC[C@H]1C(N)=O)[C@@H](C)O)C(C)C)[C@@H](C)O)N(C)C(=O)[C@H](C)NC(=O)CN(C)C(=O)[C@H](Cc1ccccc1)NC(=O)[C@H](CO)NC(=O)[C@H](CO)NC(=O)[C@H](CO)NC(=O)[C@H](CO)NC(=O)[C@H](CCCNC(=N)N)NC(=O)[C@H](Cc1c[nH]cn1)NC(=O)[C@H](CC(C)C)NC(=O)[C@H](Cc1ccccc1)NC(=O)[C@H](CCC(=O)O)NC(=O)[C@H](C)NC(=O)[C@H](CC(C)C)NC(=O)[C@H](CCCNC(=N)N)NC(=O)[C@H](C)NC(=O)[C@@H](NC(=O)[C@H](C)NC(=O)[C@@H]1CSSC[C@H](NC(=O)[C@H](CCCNC(=N)N)NC(=O)CC[C@H](NC(=O)CCCCCCCCCCCCCCCCCCC(=O)O)C(=O)O)C(=O)N[C@@H](CC(N)=O)C(=O)N[C@@H]([C@@H](C)O)C(=O)N[C@@H](C)C(=O)N[C@@H]([C@@H](C)O)C(=O)N1)[C@@H](C)O` [Compound 118, [19CD]-isoGlu-RC()NTATC()ATARLAEFLHRSSSSF-Gly(Me)-A-Ile(Me)-LSSTEVGSETP-NH2] ({C20 diacid-γGlu}-RCNTATCATARLAEFLHRSSSSF[Sar]A[NMeI]LSSTEVGSETP-NH2; disulfide 2-7), in data set [1] (setting [3]), the EC50 turned out to be 0.062 nM.
